{"source": "patent US4009273A", "about": "“Substituted 10,11-dihydro-5,10-imino-[5H] dibenzo (a,d)-cycloheptene” (priority 1972, dated 1977)", "key": {"[1]": {"system": "DOPA", "assay": "Potentialization of DOPA", "type": "in vivo, mice (male)", "conditions": "1 h before 50 mg/kg DOPA", "experimental": "In this test, DOPA [racemic β-(3,4-dihydroxyphenyl)-alanine] was administered to mice pretreated with 1-isonicotinoyl-2-isopropyl-hydrazine18 hours before the test which product caused the following symptoms: hypertonicity, agitation, crying, aggressiveness, salivation and exophthalmia. The administration of an antidepressant one hour before the DOPA injection potentializes the intensity of the effects.\nMale mice weighing between 18 to 22 g received intraperitoneally 50 mg/kg of 1-isonicotinoyl-2-isopropyl-hydrazine and 18 hours later the test product intraperitoneally in aqueous solution in increasing doses and 1 hour later received an intraperitoneal injection of 50 mg/kg of DOPA. The different effects were evaluated 15 and 30 minutes after the DOPA injection and each symptom was evaluated for each animal on a scale from 0 to 3 and the evaluations for each dose was totaled. The totals are reported in Table III as a percent of the total of control animals."}, "[2]": {"assay": "Acute toxicity", "conditions": "mouse, in vivo, ip, Swiss mice, observed for a week", "experimental": "The acute toxicity was determined on groups of Swiss mice weighing 18 to 22 g and the test products were administered intraperitoneally in increasing doses and the animals were kept under observation for a week."}, "[3]": {"system": "reserpine ptosis of the eyelid", "assay": "Antidepressant activity: antagonism of reserpine eyelid ptosis", "type": "in vivo, rats", "conditions": "1 h before 1 mg/kg reserpine", "experimental": "The antidepressant activity was determined by antagonism exercised by the compounds against the depressant activity of reserpine and this effect was determined by ptosis of the eyelid test codified by Rubin [J. Pharm. Exp. Ther., Vol. 120 (1957), p. 125]. The eyelid ptosis test is used to make a quantitative evaluation of the condition of the animal, but the antagonism exercised equally against the neuro depressive symptoms of reserpine; immobility, adynamia, hypothermia, myosis, etc. The reading was effected every hour for 6 hours after intraperitoneal injection of 1 mg/kg of reserpine to groups of rats who had one hour previously received intraperitoneally a variable dose of the test compounds. The ptosis provoked by the reserpine injection was diminished by the previous injection of the test compounds, all the more so at the elevated doses. The results were expressed as a percentage of protection compared to controls which received only reserpine and are reported in Table IV."}, "[4]": {"system": "amytal sleeping time", "assay": "Potentialization of sleeping time (amytal)", "type": "in vivo, mice (female)", "conditions": "1 h before 80 mg/kg amytal i.v.", "experimental": "The potentialization of sleeping time was determined with a test using amytal [5-ethyl-5-isoamyl-barbituric acid] in which groups of female mice weighing between 18 and 22 g were kept at 25° C for the duration of the test. The test products were administered intraperitoneally at different doses one hour before intraveinous injection of 80 mg/kg of amytal and the sleeping time was noted which is the time while the reflux of straightening in the mice was negative."}, "[5]": {"system": "amphetamine deaths", "assay": "Amphetamine toxicity in mice", "type": "in vivo, mice (female)", "conditions": "mortality at 4 h", "experimental": "The test was effected on group of 10 female mice weighing between 18 and 22 g kept at 27° C for the duration of the test. The test products were intraperitoneally administered in different doses in a volume of 0.01 ml /g of mouse. One hour later, the mice received an injection of 15 mg/kg of a solution of 1.5 mg of amphetamine per ml of physiological serum. The mortality 4 hours after the amphetamine injection was determined and the results were expressed as a ratio of number of dead animals to number of starting animals."}, "[6]": {"system": "pentamethylenetetrazol convulsions", "assay": "Anticonvulsant effect (pentamethylenetetrazol perfusion)", "type": "in vivo, mice (female)", "conditions": "1 h before perfusion", "experimental": "The anticonvulsant activity of the compounds was determined on groups of 10 female mice with intraperitoneal administration of the test compounds in acid solution at different doses and the control group received only the solvent. One hour after the injection, the mice were perfused with a solution of pentamethylenetetrazol in physiological serum at a concentration of 3 mg/ml. The perfusion was intraveinous at a rate of 1 ml per minute and in the course of the perfusion, the progress of introxication was characterized by the following 3 criteria:\na. Threshold of convulsant effect (myoclonia of the ears)\nb. Crisis of clonic convulsions\nc. Tonic convulsion with apnea and generally followed by death."}}}
{"smiles": "CN(C)CCN1C2Cc3ccccc3C1c1ccccc12", "note": "(stereo not drawn) [Example 29, 12-(2'-dimethylaminoethyl)-10,11-dihydro-5,10-imino-[5H]-dibenzo (a,d) cycloheptene dl]", "values": [{"measurement": "total symptom score as percent of the total of control animals", "setting": "[1]; 10 mg/Kg i.p.", "value": 81, "unit": "%"}, {"measurement": "total symptom score as percent of the total of control animals", "setting": "[1]; 20 mg/Kg i.p.", "value": 101, "unit": "%"}, {"measurement": "total symptom score as percent of the total of control animals", "setting": "[1]; 50 mg/Kg i.p.", "value": 177, "unit": "%"}, {"measurement": "LD50 at 168 h", "setting": "[2]", "value": "~180", "unit": "mg/kg"}, {"measurement": "% Protection", "setting": "[3]; 2 mg/Kg i.p.", "value": 9, "unit": "%"}, {"measurement": "% Protection", "setting": "[3]; 10 mg/Kg i.p.", "value": 40, "unit": "%"}, {"measurement": "% Protection", "setting": "[3]; 20 mg/Kg i.p.", "value": 39, "unit": "%"}, {"measurement": "% Protection", "setting": "[3]; 50 mg/Kg i.p.", "value": 66, "unit": "%"}]}
{"smiles": "CC(=O)CN1C2Cc3ccccc3C1c1ccccc12", "note": "(stereo not drawn) [Example 7, 12-acetonyl-10,11-dihydro-5,10-imino-[5H]-dibenzo (a,d) cycloheptene dl]", "values": [{"measurement": "total symptom score as percent of the total of control animals", "setting": "[1]; 1 mg/Kg i.p.", "value": 114, "unit": "%"}, {"measurement": "total symptom score as percent of the total of control animals", "setting": "[1]; 2 mg/Kg i.p.", "value": 135, "unit": "%"}, {"measurement": "total symptom score as percent of the total of control animals", "setting": "[1]; 5 mg/Kg i.p.", "value": 138, "unit": "%"}, {"measurement": "total symptom score as percent of the total of control animals", "setting": "[1]; 10 mg/Kg i.p.", "value": 173, "unit": "%"}, {"measurement": "average sleeping time", "setting": "[4]; 5 mg/Kg i.p.", "value": 31.3, "unit": "min"}, {"measurement": "average sleeping time", "setting": "[4]; 10 mg/Kg i.p.", "value": 51.2, "unit": "min"}, {"measurement": "average sleeping time", "setting": "[4]; 20 mg/Kg i.p.", "value": 82.3, "unit": "min"}, {"measurement": "average sleeping time", "setting": "[4]; 50 mg/Kg i.p.", "value": 107.5, "unit": "min"}, {"measurement": "LD50 at 168 h", "setting": "[2]", "value": 350, "unit": "mg/kg"}, {"measurement": "ratio of number of dead animals to number of starting animals", "setting": "[5]; 5 mg/Kg i.p., 1 h before 15 mg/kg amphetamine", "value": "2/10"}, {"measurement": "ratio of number of dead animals to number of starting animals", "setting": "[5]; 10 mg/Kg i.p., 1 h before 15 mg/kg amphetamine", "value": "0/10"}, {"measurement": "ratio of number of dead animals to number of starting animals", "setting": "[5]; 20 mg/Kg i.p., 1 h before 15 mg/kg amphetamine", "value": "0/10"}, {"measurement": "ratio of number of dead animals to number of starting animals", "setting": "[5]; head prints only \"mg/Kg\" (dose figure missing), i.p.", "value": "0/10"}, {"measurement": "Dose of pentamethylenetetrazol, Clonic Crisis", "setting": "[6]; 0.5 mg/Kg i.p.", "value": 53.3, "unit": "mg/kg"}, {"measurement": "Dose of pentamethylenetetrazol, Myoclonia", "setting": "[6]; 0.5 mg/Kg i.p.", "value": 48.6, "unit": "mg/kg"}, {"measurement": "Dose of pentamethylenetetrazol, Tonic Crisis", "setting": "[6]; 0.5 mg/Kg i.p.", "value": 119.2, "unit": "mg/kg"}, {"measurement": "Dose of pentamethylenetetrazol, Clonic Crisis", "setting": "[6]; 1 mg/Kg i.p.", "value": 52.7, "unit": "mg/kg"}, {"measurement": "Dose of pentamethylenetetrazol, Myoclonia", "setting": "[6]; 1 mg/Kg i.p.", "value": 47.7, "unit": "mg/kg"}, {"measurement": "Dose of pentamethylenetetrazol, Tonic Crisis", "setting": "[6]; 1 mg/Kg i.p.", "value": 172.5, "unit": "mg/kg"}, {"measurement": "Dose of pentamethylenetetrazol, Clonic Crisis", "setting": "[6]; 2 mg/Kg i.p.", "value": 62.6, "unit": "mg/kg"}, {"measurement": "Dose of pentamethylenetetrazol, Myoclonia", "setting": "[6]; 2 mg/Kg i.p.", "value": 57.7, "unit": "mg/kg"}, {"measurement": "Dose of pentamethylenetetrazol, Tonic Crisis", "setting": "[6]; 2 mg/Kg i.p.", "value": 172.5, "unit": "mg/kg"}, {"measurement": "Dose of pentamethylenetetrazol, Clonic Crisis", "setting": "[6]; 5 mg/Kg i.p.", "value": 112.5, "unit": "mg/kg"}, {"measurement": "Dose of pentamethylenetetrazol, Myoclonia", "setting": "[6]; 5 mg/Kg i.p.", "value": 107.4, "unit": "mg/kg"}, {"measurement": "Dose of pentamethylenetetrazol, Tonic Crisis", "setting": "[6]; 5 mg/Kg i.p.", "value": 238.9, "unit": "mg/kg"}]}
{"smiles": "CNCCN1C2Cc3ccccc3C1c1ccccc12", "note": "(stereo not drawn) [Example 28, 12-(2'-methylaminoethyl)-10,11-dihydro-5,10-imino-[5H]-dibenzo (a,d) cycloheptene dl]", "values": [{"measurement": "LD50 at 168 h", "setting": "[2]", "value": "~150", "unit": "mg/kg"}, {"measurement": "% Protection", "setting": "[3]; 2 mg/Kg i.p.", "value": 10, "unit": "%"}, {"measurement": "% Protection", "setting": "[3]; 10 mg/Kg i.p.", "value": 43, "unit": "%"}, {"measurement": "% Protection", "setting": "[3]; 20 mg/Kg i.p.", "value": 60, "unit": "%"}, {"measurement": "% Protection", "setting": "[3]; 50 mg/Kg i.p.", "value": 84, "unit": "%"}]}
{"smiles": "NCCN1C2Cc3ccccc3C1c1ccccc12", "note": "(stereo not drawn) [Example 30, 12-(2'-aminoethyl)-10,11-dihydro-5,10-imino-[5H]-dibenzo (a,d) cycloheptene dl]", "values": [{"measurement": "total symptom score as percent of the total of control animals", "setting": "[1]; 10 mg/Kg i.p.", "value": 113, "unit": "%"}, {"measurement": "total symptom score as percent of the total of control animals", "setting": "[1]; 20 mg/Kg i.p.", "value": 150, "unit": "%"}, {"measurement": "average sleeping time", "setting": "[4]; 5 mg/Kg i.p.", "value": 46.3, "unit": "min"}, {"measurement": "average sleeping time", "setting": "[4]; 10 mg/Kg i.p.", "value": 38.1, "unit": "min"}, {"measurement": "average sleeping time", "setting": "[4]; 20 mg/Kg i.p.", "value": 64.1, "unit": "min"}, {"measurement": "average sleeping time", "setting": "[4]; 50 mg/Kg i.p.", "value": 89.0, "unit": "min"}, {"measurement": "LD50 at 168 h", "setting": "[2]", "value": "~150", "unit": "mg/kg"}, {"measurement": "% Protection", "setting": "[3]; 2 mg/Kg i.p.", "value": 18, "unit": "%"}, {"measurement": "% Protection", "setting": "[3]; 10 mg/Kg i.p.", "value": 38, "unit": "%"}, {"measurement": "% Protection", "setting": "[3]; 20 mg/Kg i.p.", "value": 69, "unit": "%"}, {"measurement": "% Protection", "setting": "[3]; 50 mg/Kg i.p.", "value": 74, "unit": "%"}]}
